Measurements: US20090220964A1, “METHODS FOR DIAGNOSING AND TREATING CANCERS VIA MANIPULATIONS OF A...PATHWAY” (UNIVERSITY OF CINCINNATI, priority 2006, published 2009)

Tests used:
Rpb1 = details: 786-0 VHL(+) cells, 25 μM H2O2, 15 min, nuclease digested extracts
Method: The antibody was used to investigate the role of oxidative stress in P1465 hydroxylation and pVHL-dependent ubiquitylation of Rpb1. […] The experiments were performed using RCC 786-0 cells, a well-characterized model of renal cell cancer, in which native pVHL is absent or stably reconstituted (in legend: 786-0 VHL(−) and VHL(+)). The cells were exposed briefly to a low concentration of H2O2 (25 μM, 15 min) to induce a generic oxidative stress, and assayed at the indicated time points after treatment.

Rpb1 peptides = details: nuclear extracts from 786-0 VHL(+) cells treated with 25 μM H2O2, collected after 4 h; 37- or 24-amino acid peptides
Method: (§1) The in vitro reactions of synthetic Rpb1 and HIF-1α peptides were performed using nuclear extracts from cells treated with 25 μM H2O2 and collected after 4 h.

HIF-1α peptide = details: nuclear extracts from VHL(+) cells treated with 25 μM H2O2, collected after 4 h; 17-amino acid peptide
Method: as §1

pVHL = assay: Immunoblot of crude chromatin fractions after H2O2 treatment; details: cells expressing wild type pVHL, 25 μM H2O2, collected 4 h after treatment
Source text: In our experiments, we fractionated the pool of Rpb1 engaged on DNA using nuclease digestion and different salt extractions: the nuclear pellet remaining after standard extraction of nuclei with 0.3 M salt was digested with DNAse and micrococcal nuclease, and the digest was then extracted with the indicated concentrations of NaCl (FIG. 3). […] Two other antibodies against Rpb1 were also used: H14, and N20, which is specific for the N-terminal region of Rpb1, independent of its phosphorylation state.

[1] = system: deubiquitylating enzymes, isopeptidase T and ubiquitin C-terminal hydrolase L3; assay: Deubiquitylation of Rpb1 in chromatin extract by deubiquitylating enzymes; assay type: biochemical; details: second 0.5 M chromatin fraction of VHL(+) cells
Source text: Rpb1 was immunoprecipitated using H14 antibody from the second 0.5 M chromatin fraction, and the immunoprecipitated Rpb1 was immunobloted with BP and anti-ubiquitin antibodies (FIG. 3D). Clearly, the Rpb1 hyperphosphorylated on Ser-5 is also hydroxylated and ubiquitylated in response to oxidative stress and this response depends on the presence of functional pVHL (FIG. 1C). To confirm ubiquitylation of the hydroxylated and hyperphosphorylated Rpb1, the extracts from the second 0.5 M chromatin fraction of VHL(+) cells were incubated with deubiquitylating enzymes, isopeptidase T and ubiquitin C-terminal hydrolase L3. This treatment results in disappearance of the high migrating forms (FIG. 3E. lane 3) which is prevented by ubiquitin aldehyde, an inhibitor of deubiquitylating enzymes (FIG. 3E, lane 4).

Row | Compound | hydroxylation of Rpb1 (Rpb1) | Rpb1 peptide hydroxylation (capture of [35S]-labeled pVHL) (Rpb1 peptides) | HIF-1α peptide hydroxylation (capture of [35S]-labeled pVHL) (HIF-1α peptide) | enrichment of pVHL in chromatin extract fractions (pVHL) | disappearance of high migrating (ubiquitylated) forms of Rpb1 [1]
1 | OO [H2O2, hydrogen peroxide] | induced persistent (lasting several hours) pVHL-dependent hydroxylation of Rpb1 | augmented peptide hydroxylation | not affected | 3.5+/−1.1 fold increase | –
2 | ubiquitin aldehyde | – | – | – | – | prevented
